Experimental findings from a melting point compilation (Tetko et al.) are described below.

As a reminder, the melting point is the temperature of the solid-liquid transition.

Compound `CC(Br)C(C)Br` (centres undefined) returned a melting point of -24 °C.

For `COC(=O)CSc1cc(C(F)(F)F)nc2ccccc12`, the melting point lay within 96 to 98 °C.

The compound `Nc1ccc(N)c2ccccc12` yielded a melting point of 120 °C.

With `CC(=O)CCc1oc2c(I)cc(I)cc2c1-c1ccc(C)o1`, the melting point came out at 192 °C.

For the compound `O=C(O)c1ccccc1N=NC1SC(=S)NC1=O` (centres undefined), the melting point was 244 to 245 °C.

`NC(=O)OCC(O)COc1ccc(Cl)cc1` (centres undefined) had a melting point of 90 °C.

`CCN(CC)CN1C(=O)C(=Cc2ccco2)SC1=S` yielded a melting point of 145 °C.

Regarding `O=C(O)/C(=C/c1ccccc1)Cc1ccccc1`, the melting point was 157 to 158 °C.

As for `ClC(COCC(Cl)C(Cl)(Cl)Cl)C(Cl)(Cl)Cl` (centres undefined), the melting point is -50 °C.

Take `O=[N+]([O-])c1ccc(/C=C/c2ccc3c(c2)OCO3)c([N+](=O)[O-])c1`: the melting point lay within 178 to 179 °C.

For the compound `CCOC(=O)c1c(Nc2ccc(OC)cc2)sc2c(-c3ccccc3)c3c(N)n[nH]c3nc12`, the melting point was 248 to 252 °C.

On to `O=C(Nc1ccccc1)c1cccc2c(Br)cccc12`, for which the melting point is 217 °C.

As to `CC1C(c2ccccc2)=Cc2ccccc21` (centres undefined), the melting point stood at 58 °C.

For `COc1ccc(-c2cn3c(n2)sc2ccccc23)cc1`, the melting point lay within 177 to 179 °C.

`O=C(O)C=Cc1ccc(Br)cc1F` yielded a melting point of 219 to 223 °C.

On to `CC12CCC3C(CC=C4CC(Cl)CCC43C)C1CCC2=O` (centres undefined), for which the melting point was found to be 157 °C.

`CCOC(=O)c1oc(C(=O)OCC)c(O)c1O` returned a melting point of 178 to 180 °C.

Regarding `CN(C)Cc1c[nH]c2ccccc12`, the melting point is 138 °C.

Consider `O=[N+]([O-])c1c2c(c([N+](=O)[O-])c3c1CCCN3)NCCC2`, for which the melting point came to 187 °C.

With `C=CC=c1c(=CC)c(O)c(C2=NNC(=O)C2=CNc2ccncc2)c(=O)n1C`, the melting point worked out at 238 °C.

`COc1cccc(OC)c1/C=N/n1c(S)nnc1C(F)(F)F` displayed a melting point of 178 °C.

Take `Fc1c(F)c(F)c(I)c(I)c1F`: the melting point was in the range of 49 to 50 °C.

On to `Clc1ccc2c(c1)Oc1cc(Cl)c(Cl)c(Cl)c1O2`, for which the melting point came out at 172 °C.

For the compound `CCCc1ccccc1/C=N/Nc1ccc([N+](=O)[O-])cc1[N+](=O)[O-]`, the melting point is 228 °C.

As to `CC1(C)C2CCC1(C)C(O)C2CCO` (centres undefined), the melting point was 83 °C.

`CCCCCCCC(=O)OC1CCC2(C)C(=CCC3C2CCC2(C)C(C(C)CCCC(C)C)CCC32)C1` (centres undefined): the melting point was found to be 110 °C.

`c1ccc2c(c1)cc1c3ccccc3c3cccc4ccc2c1c43` yielded a melting point of 234 °C.

Compound `CCOC(=O)CC1Sc2ccccc2NC1=S` (centres undefined) registered a melting point of 106 to 108 °C.

As for `Cc1c(NN=C2C(=O)NN=C2c2c(O)c3ccccc3n(C)c2=O)c(=O)n(-c2ccccc2)n1C`, the melting point was determined as 200 °C.

The compound `COc1ccc(/C=C/C=O)cc1` displayed a melting point of 55 to 60 °C.

Compound `CN(C)c1ccc(C(O)c2ccc(N(C)C)cc2)cc1` gave a melting point of 101 °C.

With `CCn1cc(C(=O)O)c(=O)c2cnc(N3CCNCC3)nc21`, the melting point came to 254 °C.

`OC1OC2(CCCCC2)Cc2ccccc21` (centres undefined) showed a melting point of 89 °C.

With `O=c1/c(=C/c2ccc3c(c2)OCO3)sc2n1CCCN=2`, the melting point turned out to be 151 °C.

As to `O=Cc1cc(Cl)cc(Cl)c1[N+](=O)[O-]`, the melting point was 91 °C.

Compound `O=[N+]([O-])c1cc(S(=O)(=O)Nc2ccccc2)ccc1Nc1ccccc1` gave a melting point of 156 °C.

The compound `CCCCCCCCOc1ccc(C=O)cc1OCCCCCCCC` displayed a melting point of 54 to 56 °C.

Take `O=C1CCC(c2ccc(NC(=O)C(Cl)Cl)cc2)=NN1`: the melting point lay within 252 to 253 °C.

For the compound `O=[N+]([O-])c1c(F)ccc(Cl)c1F`, the melting point worked out at 47 °C.

The compound `COc1c(OC)c(OC(C)=O)c2c(Cl)cccc2c1OC(C)=O` returned a melting point of 134 °C.

In turn, `O=C(O)Cc1ccc(I)cc1` had a melting point of 138 °C.

`CC(Br)C(Br)CBr` (centres undefined) registered a melting point of -19 °C.

Compound `CSC(SC)=C(C#N)S(=O)(=O)C(C)C` displayed a melting point of 88 to 91 °C.

In the case of `COC(=O)c1scc(Br)c1OC`, the melting point was 73 to 74 °C.

Compound `Cc1cc(Br)ccc1N` gave a melting point of 59.5 °C.

As to `C1CCC(C(C2CCCCC2)C2CCCCC2)CC1`, the melting point turned out to be 48 °C.

Compound `CC(=O)OC1CCC(C(C)(C)C)CC1` (centres undefined) came in with a melting point of -50 °C.

Consider `CCCCCC(C)CCC` (centres undefined), for which the melting point is -99 °C.

Take `c1cnc2ncncc2n1`: the melting point is 140 °C.

As for `CC(N)Cc1ccc(O)cc1` (centres undefined), the melting point was determined as 126 °C.

As to `CN=C(NC)NCc1ccccc1`, the melting point worked out at 196 °C.

The compound `CC(CO)C1CCC2C3CCC4=CC(=O)C=CC4(C)C3CCC12C` (centres undefined) had a melting point of 178 to 184 °C.

Turning to `CC(=O)Nc1cc(CCNC(=O)c2ccccc2)ccc1CCNC(=O)c1ccccc1`, the melting point is 176 °C.

`C/C(Cc1ccccc1)=N\NC(N)=O` had a melting point of 189 °C.

For the compound `Nc1ncc([N+](=O)[O-])cc1Br`, the melting point fell in the range of 214 to 218 °C.

For the compound `BrC(Br)(Br)c1ccc2ccccc2n1`, the melting point was 128 °C.

The compound `Nc1ccccc1SCCS(=O)(=O)c1ccc(Cl)cc1` displayed a melting point of 135 to 137 °C.

Take `COc1ccc2c(c1)c(CC(=O)O)c(C)n2C(=O)C=Cc1ccccc1`: the melting point is 170 °C.

Compound `O=C(O)C=Cc1cccs1` had a melting point of 145 to 148 °C.

Regarding `CC(C)(C)OC(=O)N1CCN(c2ccc(CO)cc2)CC1`, the melting point is 109 to 111 °C.

Regarding `OCCCc1ccccn1`, the melting point is 34 °C.

`Cc1ccncc1C` registered a melting point of -11 °C.

The compound `OCCOCCOCCOCCOCCOCCO` came in with a melting point of 6 °C.

Compound `NC(=O)/C(=N\Nc1cc(Cl)ccc1Cl)c1nc2ccccc2s1` yielded a melting point of 270 °C.

In turn, `O=CN(O)CC(=O)O` had a melting point of 120 °C.

Consider `C=CC(C)(C)C(=O)O`, for which the melting point was -6 °C.

With `Cc1ccc(/C=C(\C#N)c2nc(-c3ccccc3)cs2)cc1`, the melting point is 78 to 80 °C.

As for `O=C(Oc1c(F)c(F)c(F)c(F)c1F)c1cccc(Oc2ccccn2)c1`, the melting point was 60.5 to 61.5 °C.

Turning to `O=C(Cl)C1=Cc2ccccc2OC1`, the melting point was 70 to 73 °C.

`c1ccc(-c2ccc(-c3nnc(-c4ccccc4)o3)cc2)cc1` displayed a melting point of 168 to 172 °C.

Turning to `COc1ccc(N/N=C(/C#N)c2nc(-c3ccc(C)cc3)cs2)cc1`, the melting point is 145 °C.

Compound `NC(=S)c1ccc(Cl)cc1` showed a melting point of 127 to 130 °C.

Regarding `O=C(O)c1ccccc1OP(=O)(O)O`, the melting point amounted to 168 °C.

Compound `Nc1c(F)c(F)nc(F)c1F` came in with a melting point of 86 °C.

Regarding `C=C(C)CNC(=S)NC`, the melting point fell in the range of 60 to 64 °C.

For `COc1ccc(C(C)=O)c(OC)c1OC`, the melting point is 15.8 °C.

`CNCCc1c[nH]c2ccccc12` displayed a melting point of 88 °C.

`O=C(NCc1ccc(S(=O)(=O)Cl)s1)c1ccccc1` came in with a melting point of 123 to 125 °C.

Turning to `Oc1nsc(SCc2ccccc2)n1`, the melting point lay in the range of 123 to 125 °C.

In the case of `Cn1c(S)nnc1CC#N`, the melting point lay within 188 to 190 °C.

`CCC(C)(C)c1cc(O)c(C(C)(C)CC)cc1O` registered a melting point of 180 °C.

Turning to `CC(C)[C@H](N)P(=O)(O)O`, the melting point came out at 270 °C.

As for `COc1ccc(CCCO)cc1`, the melting point was 26 °C.

Turning to `N#CCc1nc2ccccc2s1`, the melting point was found to be 102 °C.

The compound `CCOC(=O)C1=NC2Sc3sc(C(=O)OCC)cc3C(c3ccccc3)C2=C1N` (centres undefined) gave a melting point of 133 °C.

As for `OCc1c(F)cccc1Cl`, the melting point came out at 43 °C.

For `O=C(O)CCSC=Cc1ccccc1`, the melting point was 117 to 120 °C.

Turning to `O=C(O)c1ccc(OC(=O)c2ccccc2)cc1`, the melting point amounted to 89 °C.

Compound `Clc1ccc(C(Cl)(Cl)Cl)cc1Cl` gave a melting point of 25.8 °C.

Regarding `CCCCCCCCOc1ccc(C(=O)OC)cc1`, the melting point was found to be 35 °C.

Consider `Cc1cc(NC(=O)C=CC(=O)O)no1`, for which the melting point was in the range of 165 to 172 °C.

`Cc1ccc(NC(=O)c2cccc3ccccc23)cc1` returned a melting point of 174 °C.

`Brc1ccc(Oc2ccc(Br)cc2Br)cc1`: the melting point lay in the range of 64 to 64.5 °C.

In turn, `CC1(C)C(C=Cc2cc([N+](=O)[O-])cc([N+](=O)[O-])c2[O-])=[N+](Cc2ccccc2)c2ccccc21` came in with a melting point of 244 to 246 °C.

For `NCc1ccccc1O`, the melting point lay in the range of 127 to 131 °C.

Take `O=C(c1ccccc1)c1ccccc1NC(=O)[C@@H]1CCCN1Cc1ccccc1`: the melting point fell in the range of 100 to 103 °C.

Regarding `c1ccc(-c2oc(-c3ccccc3)c(-c3ccccc3)c2-c2ccccc2)cc1`, the melting point was 175 °C.

Regarding `O=C(Nc1ccc2ncccc2c1)Nc1ccc2ncccc2c1`, the melting point came out at 262 °C.

In the case of `N#CCC(=O)N1CCOCC1`, the melting point was 87 to 89 °C.

`CC(C)C(C)C=CC(C)C1CCC2C3=CC=C4CC(O)CCC4(C)C3CCC21C` (centres undefined) showed a melting point of 170 °C.

As to `C=CCNC(=O)C(C(F)(F)F)C(F)(F)F`, the melting point was 117 °C.

Consider `CC[C@@]1(O)CC[C@H]2[C@@H]3CCC4CC(OC(C)=O)CC[C@]4(C)[C@H]3CC[C@@]21C` (some centres undefined), for which the melting point was in the range of 164 to 165 °C.

`CC(C)OC(=O)[C@H](C)O` displayed a melting point of 1 °C.

Compound `Cc1c(C)c(C)c(C(=O)c2ccccc2C(=O)O)c(C)c1C` showed a melting point of 278 to 282 °C.

`FC(F)(F)C(F)(F)C(F)(F)C(F)(F)N(C(F)(F)C(F)(F)C(F)(F)C(F)(F)F)C(F)(F)C(F)(F)C(F)(F)C(F)(F)F` displayed a melting point of -50 °C.

In turn, `Cc1ccc2c(c1)C(=O)CC2` displayed a melting point of 58 °C.

As for `Cc1ncccn1`, the melting point was -4 °C.

In the case of `Nc1c(Br)cccc1Br`, the melting point came to 87.5 °C.

The compound `N#CC(=CNc1ccccc1)c1ccccc1` registered a melting point of 156 °C.
